From ChEMBL document CHEMBL1132263, “Synthesis of caged peptides using caged lysine: application to the synthesis of caged AIP, a highly specific inhibitor of calmodulin-dependent protein kinase II” (Bioorg Med Chem Lett, 1999)
Where a SMILES comes first, the peptide text is derived from it. The star is where a group is joined. X1 = O=C(OCc1ccccc1[N+](=O)[O-])*; Cbz = O=C(OCc1ccccc1)*

What follows are compounds tested against CaM kinase II (Homo sapiens, UniProt Q13557+Q13555+Q13554+Q9UQM7) (assay: Inhibitory activity of compound against CaMKII).
Type: protein assay

| IC50 [nM] | SMILES |
| --- | --- |
| 1000 | CC(C)C[C@H](NC(=O)[C@H](C)NC(=O)[C@H](CC(=O)O)NC(=O)[C@@H](NC(=O)[C@H](C)NC(=O)[C@H](CCC(=O)O)NC(=O)[C@H](CCC(N)=O)NC(=O)[C@H](CCCN=C(N)N)NC(=O)[C@H](CCCN=C(N)N)NC(=O)[C@H](CC(C)C)NC(=O)[C@H](C)NC(=O)OCc1ccccc1)C(C)C)C(=O)O (Cbz-ALRRQEAVDAL-OH) |
| 1200 | CC(C)C[C@H](NC(=O)[C@H](C)NC(=O)[C@H](CC(=O)O)NC(=O)[C@@H](NC(=O)[C@H](C)NC(=O)[C@H](CCC(=O)O)NC(=O)[C@H](CCC(N)=O)NC(=O)[C@H](CCCN=C(N)N)NC(=O)[C@H](CCCN=C(N)N)NC(=O)[C@H](CC(C)C)NC(=O)[C@H](C)NC(=O)[C@H](CCCCNC(=O)OCc1ccccc1[N+](=O)[O-])NC(=O)[C@@H](N)CCCCNC(=O)OCc1ccccc1[N+](=O)[O-])C(C)C)C(=O)O (H-K(X1)K(X1)ALRRQEAVDAL-OH) |
| 36 | CC(C)C[C@H](NC(=O)[C@H](C)NC(=O)[C@H](CC(=O)O)NC(=O)[C@@H](NC(=O)[C@H](C)NC(=O)[C@H](CCC(=O)O)NC(=O)[C@H](CCC(N)=O)NC(=O)[C@H](CCCN=C(N)N)NC(=O)[C@H](CCCN=C(N)N)NC(=O)[C@H](CC(C)C)NC(=O)[C@H](C)NC(=O)[C@H](CCCCN)NC(=O)[C@@H](N)CCCCNC(=O)OCc1ccccc1[N+](=O)[O-])C(C)C)C(=O)O (H-K(X1)KALRRQEAVDAL-OH) |
| 32 | CC(C)C[C@H](NC(=O)[C@H](C)NC(=O)[C@H](CC(=O)O)NC(=O)[C@@H](NC(=O)[C@H](C)NC(=O)[C@H](CCC(=O)O)NC(=O)[C@H](CCC(N)=O)NC(=O)[C@H](CCCN=C(N)N)NC(=O)[C@H](CCCN=C(N)N)NC(=O)[C@H](CC(C)C)NC(=O)[C@H](C)NC(=O)[C@H](CCCCN)NC(=O)[C@@H](N)CCCCN)C(C)C)C(=O)O (H-KKALRRQEAVDAL-OH) |
